The values below come from patent US10202330B2, “Lysine specific demethylase-1 inhibitors and their use” (ORYZON GENOMICS S.A., priority 2010, dated 2019).

pEC50, pKi: −log10 of the molar value. Where a name gives a salt, the structure may show the parent alone. Read-outs that look alike come from different tables or passages of the source.

Assay [1] addresses Human recombinant monoamine oxidase MAO-A (Homo sapiens (Human), UniProt P21397). Briefly: Monoamine oxidase assay, kynuramine to 4-hydroxyquinoline fluorescence. It counts as biochemical. Conditions: Ki (IC50) at Vmax/2; two ranges listed = near the boundary.
Source text: (§1) In order to monitor MAO enzymatic activities and/or their inhibition rate by inhibitor(s) of interest, a fluorescent-based (inhibitor)-screening assay was set up. 3-(2-Aminophenyl)-3-oxopropanamine (kynuramine dihydrobromide, Sigma Aldrich), a non fluorescent compound was chosen as a substrate. Kynuramine is a non-specific substrate for both MAOs activities. While undergoing oxidative deamination by MAO activities, kynuramine is converted into 4-hydroxyquinoline (4-HQ), a resulting fluorescent product.
(§2) The monoamine oxidase activity was estimated by measuring the conversion of kynuramine into 4-hydroxyquinoline. Assays were conducted in 96-well black plates with clear bottom (Corning) in a final volume of 100 μL. The assay buffer was 100 mM HEPES, pH 7.5. Each experiment was performed in triplicate within the same experiment.
(§3) The oxidative deamination of the substrate was stopped by adding 50 μL (v/v) of NaOH 2N. […] Arbitrary units were used to measure levels of fluorescence produced in the absence and/or in the presence of inhibitor.
(§4) The Ki (IC50) of each inhibitor was determined at Vmax/2.
The target in assay [2] is Human recombinant LSD1 protein (Homo sapiens (Human), UniProt O60341). The assay is described as follows: LSD1 inhibition, Amplex Red peroxide/peroxidase-coupled assay with di-methylated H3-K4 peptide. It counts as biochemical.
Procedure: The demethylase activity was estimated, under aerobic conditions, by measuring the release of H2O2 produced during the catalytic process, using the Amplex® Red peroxide/peroxidase-coupled assay kit (Invitrogen).
Within the experiment, each concentration of inhibitor was tested in triplicate. […] The enzymatic reactions were set up in a 50 mM sodium phosphate, pH 7.4 buffer. At the end of the incubation, Amplex® Red reagent and horseradish peroxidase (HPR) solution were added to the reaction according to the recommendations provided by the supplier (Invitrogen), and left to incubate for 30 extra minutes at room temperature in the dark. A 1 μM H2O2 solution was used as a control of the kit efficiency. The conversion of the Amplex® Red reagent to resorufin due to the presence of H2O2 in the assay, was monitored by fluorescence (excitation at 540 nm, emission at 590 nm) using a microplate reader (Infinite 200, Tecan). Arbitrary units were used to measure level of H2O2 produced in the absence and/or in the presence of inhibitor.
The Ki (IC50) of each inhibitor was estimated at half of the maximum activity.
Assay [3] concerns the target Human recombinant monoamine oxidase MAO-B (Homo sapiens (Human), UniProt P27338). The assay is described as follows: Monoamine oxidase assay, kynuramine to 4-hydroxyquinoline fluorescence. It counts as biochemical. Conditions: Ki (IC50) at Vmax/2; two ranges listed = near the boundary.
Source text: as §1, §2, §3, §4
The test system of assay [4] is human colon cancer cell line HCT116. The assay is described as follows: Cancer cell line study, alamarBlue viability assay. It counts as cell-based. The note with it: HCT-116, read-out: EC50 (dose required to inhibit cell growth by 50%), HCT116, 72 hours.
Procedure: The HCT116 cell line was maintained in DMEM GlutaMAX (Invitrogen) supplemented with 10% fetal calf serum.
Cells were grown in a humidified incubator at 37° C. in 5% CO2.
Cells were plated in 96-well plates at a density of 6000 cells/well in 100 μl medium 24 h before addition of drugs. […] To do so, a drugs-dilution plate at twice the screening concentrations was prepared. 72 hours later, alamarBlue (Biosource, Invitrogen) viability assay was performed following manufacturer's protocol. In brief, alamarBlue diluted in media was added to cells to have a 5% solution. Cells were incubated at 37° C., 3 hours and at room temperature, 30 min. Cells with no drug and, cells with no drug and lysed with triton X-100 were used as controls. Fluorescence was monitored at 530 nm excitation and 590 nm emission wavelengths. Results were quantified using Infinite F200 Microplate Reader (Tecan Group, Ltd.).
Setting [5] is: Ki (IC50) at half of the maximum activity, two ranges listed = near the boundary, read-out: LSD1 (Ki).

Consider `c1ccc([C@H]2C[C@@H]2NCCCC2CCCCC2)cc1` (relative stereo) [Example 13, (Trans)-N-(3-cyclohexylpropyl)-2-phenylcyclopropanamine hydrochloride], for which the values for the pKi in assay [1], in assay [2] (setting [5]) and in assay [3] were 4.40 to 6.00, 6.00 to 7.00 and 4.40 to 6.00, respectively.
Turning to `c1ccc([C@H]2C[C@@H]2NCCC2CCCCCC2)cc1` (relative stereo) [Example 14, (Trans)-N-(2-cycloheptylethyl)-2-phenylcyclopropanamine hydrochloride], the pKi was 4.40 to 6.00 in assay [1], 6.00 to 7.00 in assay [2] (setting [5]) and 4.40 to 6.00 in assay [3].
As for `Brc1cccc(COc2ccc([C@H]3C[C@@H]3NCCC3CCCCC3)cc2)c1` (relative stereo) [Example 15, (Trans)-2-(4-(3-bromobenzyloxyl)phenyl)-N-(2-cyclohexylethyl)cyclopropanamine hydrochloride], the pKi in assay [1] was 4.40 to 6.00; in assay [2], 6.00 to 7.00; in assay [3], 6.00 to 7.00. For the same compound, in assay [4], the pEC50 was approximately 4.88.
Consider `COc1ccc2c(c1)C(N[C@@H]1C[C@H]1c1ccc(OCc3ccccc3)cc1)CCC2` (relative stereo) [Example 20, N-((trans)-2-(4-(benzyloxy)phenyl)cyclopropyl)-7-methoxy-1,2,3,4-tetrahydronaphthalen-1-amine], for which the figures for the pKi in assay [1], in assay [2] (setting [5]) and in assay [3] were 4.40 to 6.00, 6.00 to 7.00 and 4.40 to 6.00, respectively.
Take `COc1ccc2c(c1)C(N[C@H]1CC1c1ccc(OCc3ccccc3)cc1)CC2.Cl` (stereo in doubt) [Example 1, N-((trans)-2-(4-(benzyloxy)phenyl)cyclopropyl)-6-methoxy-2,3-dihydro-1H-inden-1-amine hydrochloride]: the pKi in assay [1] is 4.40 to 6.00. Also, the “MAO-B (Ki)” value in assay [3] is listed as “II, III”.
As for `COc1ccc2c(c1OC)CCC2N[C@H]1CC1c1ccc(OCc2ccccc2)cc1.Cl` (stereo in doubt) [Example 3, N-((trans)-2-(4-(benzyloxy)phenyl)cyclopropyl)-4,5-dimethoxy-2,3-dihydro-1H-inden-1-amine hydrochloride], the pKi in assay [1] and in assay [3] was 4.40 to 6.00 throughout. Also, the pEC50 in assay [4] is approximately 4.43. In assay [2] (Ki (IC50) at half of the maximum activity, two ranges listed = near the boundary), the “LSD1 (Ki)” value is “II, III”.
Turning to `c1ccc(C2C[C@@H]2NC2CCc3ccccc32)cc1` (stereo in doubt) [Example 4, N-((trans)-2-phenylcyclopropyl)-2,3-dihydro-1H-inden-1-amine hydrochloride], the pKi in assay [1] was 4.40 to 6.00.
For the compound `COc1ccc2c(c1)C(N[C@H]1CC1c1ccccc1)CC2` (stereo in doubt) [Example 5, 6-methoxy-N-((trans)-2-phenylcyclopropyl)-2,3-dihydro-1H-inden-1-amine], the pKi in assay [1] is 4.40 to 6.00.
With `Clc1ccc2c(c1)C(N[C@H]1CC1c1ccccc1)CC2` (stereo in doubt) [Example 6, 6-chloro-N-((trans)-2-phenylcyclopropyl)-2,3-dihydro-1H-inden-1-amine hydrochloride], the values for the pKi in assay [1], in assay [2] (setting [5]) and in assay [3] were 4.40 to 6.00, 6.00 to 7.00 and 4.40 to 6.00, respectively.
As for `COc1ccc2c(c1)C(N[C@H]1CC1c1ccccc1)CCC2` (stereo in doubt) [Example 8, 7-methoxy-N-((trans)-2-phenylcyclopropyl)-1,2,3,4-tetrahydronaphthalen-1-amine], the negative-log Ki (pKi) is 4.40 to 6.00 in assay [1], 6.00 to 7.00 in assay [2] (setting [5]) and 4.40 to 6.00 in assay [3].
`COc1cccc(-c2ccc(C3C[C@@H]3NC3CCc4ccc(OC)cc43)cc2)c1` (stereo in doubt) [Example 11, 6-methoxy-N-((trans)-2-(3′-methoxybiphenyl-4-yl)cyclopropyl)-2,3-dihydro-1H-inden-1-amine hydrochloride]: the pKi in assay [1] is 4.40 to 6.00.
As for `COc1ccc2c(c1)C(N[C@H]1CC1c1ccc(OCc3cccc(Br)c3)cc1)CC2` (stereo in doubt) [Example 16, N-((trans)-2-(4-(3-bromobenzyloxyl)phenyl)cyclopropyl)-6-methoxy-2,3-dihydro-1H-inden-1-amine hydrochloride], the pKi was 4.40 to 6.00 in assay [1], 6.00 to 7.00 in assay [2] (setting [5]) and 4.40 to 6.00 in assay [3].

What is called pKi is −log10 of the Ki, conventionally taken in molar units. By pEC50 is commonly meant the negative decadic logarithm of the EC50, by convention in mol/L.
